Source: ChEMBL document CHEMBL1136839, “3,4-Disubstituted isothiazoles: novel potent inhibitors of VEGF receptors 1 and 2” (Bioorg Med Chem Lett, 2009)

Legend:
[1] = target: Proto-oncogene tyrosine-protein kinase Src (Homo sapiens) (UniProt P12931); experiment: Inhibition of Src at 10 uM by HTRF assay
[2] = target: Aurora kinase B (Homo sapiens) (UniProt Q96GD4); experiment: Inhibition of Aurora B at 10 uM by HTRF assay
[3] = target: Bcr/Abl fusion protein (Homo sapiens) (UniProt P00519+P11274); experiment: Inhibition of bcr-Abl at 10 uM by HTRF assay; format: protein assay
[4] = target: Cyclin-dependent kinase 2 (Homo sapiens) (UniProt P24941); experiment: Inhibition of CDK2 at 10 uM by HTRF assay
[5] = target: Macrophage-stimulating protein receptor (Homo sapiens) (UniProt Q04912); experiment: Inhibition of Ron at 10 uM by HTRF assay
Sequence of Macrophage-stimulating protein receptor (Homo sapiens) (Q04912 25-304 limits assumed): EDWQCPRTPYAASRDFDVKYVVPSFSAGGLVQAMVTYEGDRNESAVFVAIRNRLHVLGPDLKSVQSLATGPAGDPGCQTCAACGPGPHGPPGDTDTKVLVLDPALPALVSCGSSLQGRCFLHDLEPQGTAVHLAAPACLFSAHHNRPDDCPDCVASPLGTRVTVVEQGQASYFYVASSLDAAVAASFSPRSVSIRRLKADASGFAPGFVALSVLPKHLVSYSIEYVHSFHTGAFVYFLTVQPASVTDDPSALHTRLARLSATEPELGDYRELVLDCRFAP
Sequence of Macrophage-stimulating protein receptor (Homo sapiens) (Q04912 310-1400 limits assumed): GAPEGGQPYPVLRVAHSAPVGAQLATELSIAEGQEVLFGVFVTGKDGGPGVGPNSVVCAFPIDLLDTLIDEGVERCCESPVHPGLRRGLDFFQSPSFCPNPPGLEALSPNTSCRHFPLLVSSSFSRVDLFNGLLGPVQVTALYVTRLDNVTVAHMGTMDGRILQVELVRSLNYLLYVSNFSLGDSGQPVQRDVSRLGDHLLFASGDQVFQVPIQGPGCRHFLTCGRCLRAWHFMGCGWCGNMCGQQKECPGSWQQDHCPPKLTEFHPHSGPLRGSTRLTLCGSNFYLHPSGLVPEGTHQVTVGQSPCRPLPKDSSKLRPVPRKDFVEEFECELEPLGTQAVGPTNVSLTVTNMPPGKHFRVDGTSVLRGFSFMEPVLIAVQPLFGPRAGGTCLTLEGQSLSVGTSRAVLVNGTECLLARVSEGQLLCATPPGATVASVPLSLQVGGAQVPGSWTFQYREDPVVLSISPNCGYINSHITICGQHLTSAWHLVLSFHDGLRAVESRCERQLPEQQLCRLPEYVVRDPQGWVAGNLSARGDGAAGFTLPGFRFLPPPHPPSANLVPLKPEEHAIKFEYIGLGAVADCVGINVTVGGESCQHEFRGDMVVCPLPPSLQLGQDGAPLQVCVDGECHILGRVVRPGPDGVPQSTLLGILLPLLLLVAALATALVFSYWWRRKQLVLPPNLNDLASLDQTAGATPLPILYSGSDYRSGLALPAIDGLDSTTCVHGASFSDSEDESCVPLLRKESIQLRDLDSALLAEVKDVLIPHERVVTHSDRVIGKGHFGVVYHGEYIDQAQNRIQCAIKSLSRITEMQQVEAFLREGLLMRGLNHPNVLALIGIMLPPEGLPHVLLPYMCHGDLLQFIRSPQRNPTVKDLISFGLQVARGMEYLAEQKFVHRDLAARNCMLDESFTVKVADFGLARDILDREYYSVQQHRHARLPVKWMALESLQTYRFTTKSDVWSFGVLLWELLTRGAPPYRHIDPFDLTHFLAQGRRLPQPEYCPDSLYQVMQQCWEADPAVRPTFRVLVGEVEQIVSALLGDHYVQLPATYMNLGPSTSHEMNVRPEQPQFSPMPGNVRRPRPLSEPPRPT

[6] = target: Receptor tyrosine-protein kinase erbB-2 (Homo sapiens) (UniProt P04626); experiment: Inhibition of ErbB2 at 10 uM by HTRF assay
[7] = target: Fibroblast growth factor receptor 1 (Homo sapiens) (UniProt P11362); experiment: Inhibition of FGFR1 at 10 uM by HTRF assay
[8] = Inhibition of PKA at 10 uM by HTRF assay
[9] = target: Glycogen synthase kinase-3 beta (Homo sapiens) (UniProt P49841); experiment: Inhibition of GSK3-beta at 10 uM by HTRF assay
Sequence of Glycogen synthase kinase-3 beta (Homo sapiens) (P49841 whole entry, looked up): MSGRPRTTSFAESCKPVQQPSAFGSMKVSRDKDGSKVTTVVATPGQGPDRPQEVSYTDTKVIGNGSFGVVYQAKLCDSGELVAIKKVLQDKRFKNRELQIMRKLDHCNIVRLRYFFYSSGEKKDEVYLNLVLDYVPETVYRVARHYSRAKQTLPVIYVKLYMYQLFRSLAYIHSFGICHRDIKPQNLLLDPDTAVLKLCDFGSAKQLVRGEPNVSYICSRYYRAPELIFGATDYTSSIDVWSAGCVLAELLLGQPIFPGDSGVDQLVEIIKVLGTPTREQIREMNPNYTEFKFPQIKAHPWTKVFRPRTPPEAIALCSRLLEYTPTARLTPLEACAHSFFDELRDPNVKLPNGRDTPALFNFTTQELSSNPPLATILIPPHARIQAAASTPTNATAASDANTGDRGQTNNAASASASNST

[10] = target: Serine/threonine-protein kinase PLK1 (Homo sapiens) (UniProt P53350); experiment: Inhibition of Plk1 at 10 uM by HTRF assay
[11] = target: Cyclin-dependent kinase 1 (Homo sapiens) (UniProt P06493); experiment: Inhibition of CDK1 at 10 uM by HTRF assay
Sequence of Cyclin-dependent kinase 1 (Homo sapiens) (P06493 whole entry, looked up): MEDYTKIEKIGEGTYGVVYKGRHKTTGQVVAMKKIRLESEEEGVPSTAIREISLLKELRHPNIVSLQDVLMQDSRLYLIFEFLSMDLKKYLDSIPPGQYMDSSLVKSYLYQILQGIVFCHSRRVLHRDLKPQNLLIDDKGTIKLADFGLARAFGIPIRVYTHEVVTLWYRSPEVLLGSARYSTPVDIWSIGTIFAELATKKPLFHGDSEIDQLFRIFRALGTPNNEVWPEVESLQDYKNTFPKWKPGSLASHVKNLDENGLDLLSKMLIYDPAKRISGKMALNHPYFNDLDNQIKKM

[12] = Inhibition of Bcr-Abl T315 mutant at 10 uM by HTRF assay
[13] = target: Epidermal growth factor receptor (Homo sapiens) (UniProt P00533); experiment: Inhibition of EGFR at 10 uM by HTRF assay
[14] = target: Insulin receptor (Homo sapiens) (UniProt P06213); experiment: Inhibition of InR at 10 uM by HTRF assay
Sequence of Insulin receptor (Homo sapiens) (P06213 28-758 limits assumed): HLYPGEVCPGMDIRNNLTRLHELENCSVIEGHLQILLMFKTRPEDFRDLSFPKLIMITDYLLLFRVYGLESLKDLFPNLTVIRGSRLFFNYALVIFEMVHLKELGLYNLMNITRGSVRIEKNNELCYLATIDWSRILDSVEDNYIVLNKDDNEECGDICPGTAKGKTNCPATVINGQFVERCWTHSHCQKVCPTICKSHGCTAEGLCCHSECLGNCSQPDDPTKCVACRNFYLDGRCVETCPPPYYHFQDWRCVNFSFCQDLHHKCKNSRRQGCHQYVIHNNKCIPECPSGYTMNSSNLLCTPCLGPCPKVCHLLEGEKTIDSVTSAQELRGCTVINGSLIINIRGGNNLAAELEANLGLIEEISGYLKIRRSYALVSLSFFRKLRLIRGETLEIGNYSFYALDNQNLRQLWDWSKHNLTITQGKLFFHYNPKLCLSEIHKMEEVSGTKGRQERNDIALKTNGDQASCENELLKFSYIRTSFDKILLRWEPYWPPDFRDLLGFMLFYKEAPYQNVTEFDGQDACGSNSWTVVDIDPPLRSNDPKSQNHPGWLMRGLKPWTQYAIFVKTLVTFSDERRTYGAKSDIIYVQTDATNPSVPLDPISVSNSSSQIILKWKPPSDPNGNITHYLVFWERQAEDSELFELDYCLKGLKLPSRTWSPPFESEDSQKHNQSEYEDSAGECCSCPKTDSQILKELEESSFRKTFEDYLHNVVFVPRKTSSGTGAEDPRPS
Sequence of Insulin receptor (Homo sapiens) (P06213 763-1382 limits assumed): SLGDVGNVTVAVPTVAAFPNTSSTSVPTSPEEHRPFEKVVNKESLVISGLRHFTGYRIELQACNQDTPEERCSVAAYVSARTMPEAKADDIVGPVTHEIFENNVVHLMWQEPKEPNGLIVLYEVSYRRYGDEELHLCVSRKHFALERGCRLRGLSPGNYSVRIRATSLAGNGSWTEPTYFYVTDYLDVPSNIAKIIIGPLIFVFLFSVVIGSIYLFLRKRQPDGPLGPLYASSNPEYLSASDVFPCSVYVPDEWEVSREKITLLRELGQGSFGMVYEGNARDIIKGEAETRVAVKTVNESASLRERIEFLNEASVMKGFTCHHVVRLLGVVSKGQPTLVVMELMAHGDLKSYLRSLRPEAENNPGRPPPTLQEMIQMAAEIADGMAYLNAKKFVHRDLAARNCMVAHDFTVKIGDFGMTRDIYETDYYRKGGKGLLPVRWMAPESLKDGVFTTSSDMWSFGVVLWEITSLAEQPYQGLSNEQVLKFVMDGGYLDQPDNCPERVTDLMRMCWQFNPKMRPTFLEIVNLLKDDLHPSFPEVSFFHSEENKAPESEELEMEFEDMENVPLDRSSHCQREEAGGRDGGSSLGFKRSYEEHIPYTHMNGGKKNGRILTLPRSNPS

[15] = target: T1, Aurora kinase A (Homo sapiens) (UniProt O14965); experiment: Inhibition of Aurora A at 10 uM by HTRF assay
T1 sequence (whole entry): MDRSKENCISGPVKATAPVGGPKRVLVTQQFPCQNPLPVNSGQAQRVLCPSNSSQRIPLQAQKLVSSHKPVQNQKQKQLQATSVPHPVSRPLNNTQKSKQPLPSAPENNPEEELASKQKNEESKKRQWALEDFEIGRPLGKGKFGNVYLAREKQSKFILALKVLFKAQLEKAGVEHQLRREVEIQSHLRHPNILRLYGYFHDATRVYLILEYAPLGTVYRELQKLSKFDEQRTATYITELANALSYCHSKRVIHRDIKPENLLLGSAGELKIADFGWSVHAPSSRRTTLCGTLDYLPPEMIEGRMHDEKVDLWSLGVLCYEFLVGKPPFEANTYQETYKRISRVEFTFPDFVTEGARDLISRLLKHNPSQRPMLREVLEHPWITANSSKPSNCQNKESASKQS

[16] = target: Vascular endothelial growth factor receptor 1 (Homo sapiens, UniProt P17948); experiment: Inhibition of VEGFR1 assessed as blockade of pGAT-biotin phosphorylation in presence of 2 uM ATP by HTRF assay
[17] = Intrinsic permeability across human Caco-2 cells
[18] = target: Hepatocyte growth factor receptor (Homo sapiens) (UniProt P08581); experiment: Inhibition of cMET at 10 uM by HTRF assay
[19] = target: T2, Vascular endothelial growth factor receptor 2 (Homo sapiens, UniProt P35968); experiment: Inhibition of VEGFR2 expressed in HEK293 cells assessed as inhibition of receptor phosphorylation by ELISA; format: cell-based
T2 sequence (P35968 whole entry): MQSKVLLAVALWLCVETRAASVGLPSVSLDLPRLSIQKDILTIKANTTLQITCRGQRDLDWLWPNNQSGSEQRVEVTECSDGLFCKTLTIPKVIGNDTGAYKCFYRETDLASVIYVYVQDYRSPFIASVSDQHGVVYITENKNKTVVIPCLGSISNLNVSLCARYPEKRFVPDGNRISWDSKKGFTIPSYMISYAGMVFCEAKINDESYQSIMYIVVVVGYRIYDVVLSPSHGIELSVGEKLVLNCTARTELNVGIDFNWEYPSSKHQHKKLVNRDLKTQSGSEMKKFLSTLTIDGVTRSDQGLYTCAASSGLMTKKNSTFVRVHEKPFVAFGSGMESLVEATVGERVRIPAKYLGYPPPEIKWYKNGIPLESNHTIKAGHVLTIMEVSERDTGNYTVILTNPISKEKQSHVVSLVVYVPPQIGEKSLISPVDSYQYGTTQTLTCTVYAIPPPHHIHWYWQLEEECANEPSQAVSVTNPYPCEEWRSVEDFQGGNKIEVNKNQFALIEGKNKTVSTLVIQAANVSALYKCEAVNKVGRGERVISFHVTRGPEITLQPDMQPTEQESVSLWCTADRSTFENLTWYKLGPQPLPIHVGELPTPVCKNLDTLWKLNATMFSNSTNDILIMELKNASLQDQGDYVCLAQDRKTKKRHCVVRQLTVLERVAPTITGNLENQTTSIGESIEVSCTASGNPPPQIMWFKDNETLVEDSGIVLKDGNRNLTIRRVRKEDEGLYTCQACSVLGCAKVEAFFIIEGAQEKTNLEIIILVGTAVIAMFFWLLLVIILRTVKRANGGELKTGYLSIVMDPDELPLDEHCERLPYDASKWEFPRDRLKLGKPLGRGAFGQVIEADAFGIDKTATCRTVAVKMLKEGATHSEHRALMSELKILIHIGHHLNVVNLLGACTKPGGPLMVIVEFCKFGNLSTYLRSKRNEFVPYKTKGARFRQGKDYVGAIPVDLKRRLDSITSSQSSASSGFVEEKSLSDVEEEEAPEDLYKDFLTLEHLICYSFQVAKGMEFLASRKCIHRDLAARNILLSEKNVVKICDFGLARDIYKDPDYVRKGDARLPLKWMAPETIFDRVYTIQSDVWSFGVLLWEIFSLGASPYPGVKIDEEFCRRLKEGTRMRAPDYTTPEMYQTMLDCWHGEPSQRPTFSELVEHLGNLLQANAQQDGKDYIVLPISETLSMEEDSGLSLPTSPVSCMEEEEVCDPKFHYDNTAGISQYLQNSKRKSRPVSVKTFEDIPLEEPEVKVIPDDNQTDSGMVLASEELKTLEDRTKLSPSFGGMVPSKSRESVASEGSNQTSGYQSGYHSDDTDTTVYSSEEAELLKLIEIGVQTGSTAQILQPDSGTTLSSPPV

[20] = target: T2, Vascular endothelial growth factor receptor 2; experiment: Inhibition of VEGFR2 assessed as blockade of pGAT-biotin phosphorylation in presence of 2 uM ATP by HTRF assay
[21] = target: Insulin-like growth factor 1 receptor (Homo sapiens) (UniProt P08069); experiment: Inhibition of IGF1R at 10 uM by HTRF assay
[22] = target: Receptor-type tyrosine-protein kinase FLT3 (Homo sapiens) (UniProt P36888); experiment: Inhibition of Flt3 at 10 uM by HTRF assay

Structure (SMILES) | inhibition [1] [%] | inhibition [2] [%] | inhibition [3] [%] | inhibition [4] [%] | inhibition [5] [%] | inhibition [6] [%] | inhibition [7] [%] | inhibition [8] [%] | inhibition [9] [%] | inhibition [10] [%] | inhibition [11] [%] | inhibition [12] [%] | inhibition [13] [%] | inhibition [14] [%] | inhibition [15] [%] | IC50 [16] [nM] | inhibition [18] [%] | IC50 [19] [nM] | inhibition [21] [%] | inhibition [22] [%] | other results
O=C(Nc1cccc(Br)c1)c1nscc1NCc1ccnc2ccccc12 | < 30 | – | < 30 | < 30 | < 30 | < 30 | < 30 | < 30 | < 30 | – | < 30 | < 30 | < 30 | < 30 | – | – | < 30 | – | < 30 | < 30 | Papp [17]: 3.58 ×10⁻⁶ cm/s
O=C(Nc1cccc(Br)c1)c1nscc1NCCc1ccc2c(c1)OCO2 | < 30 | < 30 | < 30 | < 30 | < 30 | < 30 | < 30 | < 30 | < 30 | < 30 | < 30 | < 30 | < 30 | < 30 | < 30 | > 10000 | < 30 | > 10000 | < 30 | < 30 | IC50 [20]: > 10000 nM
O=C(Nc1cccc(C(F)(F)F)c1)c1nscc1NCc1ccccn1 | < 30 | < 30 | < 30 | < 30 | < 30 | < 30 | < 30 | < 30 | < 30 | < 30 | < 30 | < 30 | < 30 | < 30 | < 30 | > 10000 | < 30 | > 10000 | < 30 | < 30 | IC50 [20]: > 10000 nM
CC(C)(C)c1cccc(NC(=O)c2nscc2NCc2ccncc2)c1 | < 30 | – | < 30 | < 30 | < 30 | < 30 | < 30 | < 30 | < 30 | – | < 30 | < 30 | < 30 | < 30 | – | – | < 30 | – | < 30 | < 30 | Papp [17]: 5.58 ×10⁻⁶ cm/s
O=C(Nc1cccc(C(F)(F)F)c1)c1nscc1NCCc1ccc2c(c1)OCO2 | < 30 | < 30 | < 30 | < 30 | < 30 | < 30 | < 30 | < 30 | < 30 | < 30 | < 30 | < 30 | < 30 | < 30 | < 30 | > 10000 | < 30 | > 10000 | < 30 | < 30 | IC50 [20]: > 10000 nM
O=C(Nc1cccc(C(F)(F)F)c1)c1nscc1NCc1ccnc2ccccc12 | < 30 | – | < 30 | < 30 | < 30 | < 30 | < 30 | < 30 | < 30 | – | < 30 | < 30 | < 30 | < 30 | – | – | < 30 | – | < 30 | < 30 | Papp [17]: 2.72 ×10⁻⁶ cm/s

Further lines, with some results ahead:

inhibition [1] [%] | inhibition [2] [%] | inhibition [3] [%] | inhibition [4] [%] | inhibition [5] [%] | inhibition [6] [%] | inhibition [7] [%] | inhibition [8] [%] | inhibition [9] [%] | inhibition [10] [%] | inhibition [11] [%] | inhibition [12] [%] | inhibition [13] [%] | inhibition [14] [%] | inhibition [15] [%] | IC50 [16] [nM] | inhibition [18] [%] | IC50 [19] [nM] | inhibition [21] [%] | inhibition [22] [%] | Structure (SMILES) | other results
< 30 | < 30 | < 30 | < 30 | < 30 | < 30 | < 30 | < 30 | < 30 | < 30 | < 30 | < 30 | < 30 | < 30 | < 30 | 260 | < 30 | 41 | < 30 | < 30 | O=C(Nc1cccc(OC(F)(F)F)c1)c1nscc1NCc1ccncc1 | Papp [17]: 7.93 ×10⁻⁶ cm/s; IC50 [20]: 33 nM
< 30 | < 30 | < 30 | < 30 | < 30 | < 30 | < 30 | < 30 | < 30 | < 30 | < 30 | < 30 | < 30 | < 30 | < 30 | 980 | < 30 | 530 | < 30 | < 30 | O=C(Nc1ccc(Cl)c(C(F)(F)F)c1)c1nscc1NCc1ccncc1 | IC50 [20]: 230 nM
< 30 | < 30 | < 30 | < 30 | < 30 | < 30 | < 30 | < 30 | < 30 | < 30 | < 30 | < 30 | < 30 | < 30 | < 30 | 700 | < 30 | 790 | < 30 | < 30 | O=C(NCc1ccc2c(c1)OCO2)c1nscc1NCc1ccncc1 | IC50 [20]: 650 nM
< 30 | < 30 | < 30 | < 30 | < 30 | < 30 | < 30 | < 30 | < 30 | < 30 | < 30 | < 30 | < 30 | < 30 | < 30 | 1800 | < 30 | 2050 | < 30 | < 30 | O=C(Nc1ccc(C(F)(F)F)c(Cl)c1)c1nscc1NCc1ccncc1 | IC50 [20]: 890 nM
< 30 | < 30 | < 30 | < 30 | < 30 | < 30 | < 30 | < 30 | < 30 | < 30 | < 30 | < 30 | < 30 | < 30 | < 30 | 55 | < 30 | 210 | < 30 | < 30 | O=C(Nc1cccc(Br)c1)c1nscc1NCc1ccncc1 | IC50 [20]: 27 nM
< 30 | < 30 | < 30 | < 30 | < 30 | < 30 | < 30 | < 30 | < 30 | < 30 | < 30 | < 30 | < 30 | < 30 | < 30 | 380 | < 30 | 770 | < 30 | < 30 | O=C(Nc1ccc2ccccc2n1)c1nscc1NCc1ccncc1 | IC50 [20]: 440 nM
